Experiments:
[1] = Example 13: single 150 mg (3 × 50 mg) oral dose pharmacokinetics in healthy elderly male volunteers, fasting and fed; type: in vivo, human; conditions: 150 mg (3 × 50 mg) single oral, Fasting Conditions, mean
Procedure: (§1) In the following examples and elsewhere herein, terms are as defined below. The pharmacokinetic parameters were derived by non-compartmental analysis using WinNonlin° (Pharsight Corporation, Mountain View, Calif.) or SAS® for Windows® (SAS Institute Inc., Cary, N.C.).
A single dose study of 3-APS Modified-Release Coated Tablets (of Table 5 above) in healthy elderly male volunteers following a 150 mg oral dose administration under fed conditions is conducted. For the 150 mg dose, three 50 mg tables are administered.

[2] = Example 8 Part I: multiple rising oral dose pharmacokinetics of NC-758; type: in vivo; conditions: human, plasma, fasted; for AUC(0-inf) / AUC(0-t) / Cmax: mean; for AUC(0-t): read-out: AUC0-12h; for Tmax: median
Procedure: as §1
For doses at multiples of 100 mg, multiple 100 mg tables are administered. […] In Part I, 3-APS is administered as a single dose on Days 1 and 12 and on Days 2-11, twice daily at 12 hour intervals.

[3] = Example 10: 3-APS concentration in cerebrospinal fluid (CSF) of AD patients; type: in vivo, human; conditions: additional tests, treated patients
Excerpt: (Patients having a CSF level below the lower limit of quantitation of the assay are considered as zero.) CSF concentrations of 3-APS on Day 2 of Week 12 after twice daily oral administration for 12 weeks are as follows: […]

[4] = Example 7 Part II: food effect on single 200 mg oral dose pharmacokinetics (Table 3 formulation); type: in vivo, human; conditions: 200 mg single oral, young male
Procedure: as §1
Following single oral dosing of 200 mg 3-APS (modified-release coated formulation as described in Table 3 above) to young male subjects (aged between 18 and 45 years) under fasted and fed (high fat) conditions, maximum plasma concentrations of 3-APS are attained at 5 and 13.5 h post-dose under fasted and fed conditions, respectively (Table 9A).

[5] = dog, in vivo
Procedure: (§2) Furthermore, the non-hygroscopic nature of the acid form makes it desirable as active pharmaceutical ingredient. To further protect against any possible gastrointestinal intolerance that could result from the acid form, the tablets are enteric-coated and a modified-release agent is added to control any rapid release of the drug in the stomach and the intestine, respectively.

[6] = Example 9 Part I: single oral dose pharmacokinetics of NC-758-1 (Table 5 tablet) in healthy elderly; type: in vivo; conditions: both sexes, human, plasma, elderly male and female, fasted; for AUC(0-inf) / AUC(0-t) / Cmax: mean; for Tmax: median
Excerpt: as §1
Part I—The pharmacokinetic profile and the effect of food on single oral doses of 3-APS free acid (modified-release enteric-coated tablet as described in Table 5 above, hereinafter “NC-758-1“) in healthy male and female elderly (≧55 years) volunteers. For doses at multiples of 50 mg, multiple 50 mg tables are administered. The test is an open label, three-period crossover study to assess the pharmacokinetic profile of 3 single oral doses of NC-758-1 in healthy elderly (≧55 years) male and female subjects. The blood samples are collected during 24 h following dosing. Plasma concentrations of 3-APS are determined using a validated LC-MS/MS method.

[7] = Example 7 Part I: single rising oral dose pharmacokinetics of NC-758 (Table 3 tablet), plasma 3-APS by LC-MS/MS; type: in vivo, human; conditions: for AUC(0-inf) / Tmax / Cmax / AUC(0-t): human, plasma, fasted; for AUC(0-inf) / Cmax / AUC(0-t): mean; for Tmax: median; for Cmax / AUC(0-t): male, po; for AUC(0-t): read-out: AUC0-Tlast
Excerpt: as §1
Part I—The pharmacokinetic profile and the effect of food on single rising oral doses of 3-APS free acid (modified-release enteric-coated tablet, as described in Table 3 above, hereinafter “NC-758”) in healthy male young (18-45 years) volunteers is determined. For doses at multiples of 100 mg, multiple 100 mg tables are administered. The pharmacokinetics of a single oral dose of NC-758 is also determined in a group of healthy male elderly (≧55 years old) volunteers. The test is a randomized, double-blind, placebo-controlled study to assess the pharmacokinetic profile of 4 single rising oral doses of NC-758 in healthy young (18-45 years) male subjects. Blood samples are collected during 24 h following dosing. Plasma concentrations of 3-APS are determined using a validated LC-MS/MS method.

[8] = biological target: T1, Aβ42 (Homo sapiens, UniProt P05067); experiment: Example 11 additional tests: CSF Aβ42 levels and Aβ42/Aβ40 ratio in treated patients; type: in vivo
T1 construct: from tissue; host or cells: cerebrospinal fluid of AD patients treated with 3-APS

[9] = Example 9 Part II: food effect on single 100 mg oral dose pharmacokinetics in elderly (Table 5 formulation); type: in vivo; conditions: both sexes, human, plasma; 100 mg single oral, elderly male and female, Fasting Arm; median
Procedure: as §1
Following single oral dosing of 100 mg 3-APS (modified-release coated formulation modified-release enteric-coated tablet as described in Table 5 above) to elderly (55 years or older) male and female subjects under fasted and fed (high fat) conditions, maximum plasma concentrations of 3-APS are attained at 5 and 10.5 h post-dose under fasted and fed conditions, respectively (Table 12A below and FIG. 5 showing the Mean Plasma Concentration-Time Profiles of 3-APS under Fasted and Fed Conditions following Single Oral Administration of 100 mg to Elderly Male and Female Subjects).

[10] = Gastrointestinal tolerability of sodium salt capsules (certain studies); type: in vivo; conditions: solid dosage form (capsules)
Procedure: as §2

[11] = both sexes, 200 mg, 200 mg BID, Day 1, elderly (≧55 years) male and female
[12] = both sexes, 200 mg, 200 mg BID, Day 12, elderly (≧55 years) male and female
[13] = male, 100 mg, 100 mg BID, Day 1, young (18-45 years) male
[14] = male, 100 mg, 100 mg BID, Day 12, young (18-45 years) male
[15] = male, 200 mg, 200 mg BID, Day 1, young (18-45 years) male
[16] = male, 200 mg, 200 mg BID, Day 12, young (18-45 years) male
[17] = 100 mg single oral, young (18-45 years) male
[18] = 200 mg single oral, young (18-45 years) male
[19] = 300 mg single oral, young (18-45 years) male
[20] = 100 mg, 100 mg single oral, young (18-45 years) male
[21] = 200 mg, 200 mg single oral, elderly (>55 years) male
[22] = 200 mg, 200 mg single oral, young (18-45 years) male
[23] = 300 mg, 300 mg single oral, young (18-45 years) male
[24] = 400 mg, 400 mg single oral, young (18-45 years) male

T1 sequence (P05067 672-713 limits assumed): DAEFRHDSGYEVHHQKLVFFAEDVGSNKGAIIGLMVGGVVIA

SMILES: NCCCS(=O)(=O)O [3-APS, 3-amino-1-propanesulfonic acid]
- AUC0-Tlast [1]: 3211 ng·h/mL
- AUC∞ [1]: 3284 ng·h/mL
- AUC(0-inf) ([2]; both sexes, 200 mg BID, Day 1, elderly (≧55 years) male and female): 5500 ng·h/mL
- AUC(0-t) ([2]; both sexes, 200 mg BID, Day 12, elderly (≧55 years) male and female): 6290 ng·h/mL
- Cmax [2, 11]: 897 ng/mL
- AUC(0-t) [2, 11]: 5020 ng·h/mL
- Tmax [2, 11]: 6 h
- Cmax [2, 12]: 880 ng/mL
- Tmax [2, 12]: 5 h
- AUC(0-inf) ([2]; 100 mg BID, Day 1, young (18-45 years) male): 1020 ng·h/mL
- AUC(0-inf) ([2]; 200 mg BID, Day 1, young (18-45 years) male): 3210 ng·h/mL
- Cmax [2, 13]: 282 ng/mL
- AUC(0-t) [2, 13]: 1330 ng·h/mL
- Tmax [2, 13]: 6 h
- Cmax [2, 14]: 256 ng/mL
- AUC(0-t) [2, 14]: 1430 ng·h/mL
- Tmax [2, 14]: 2.5 h
- Cmax [2, 15]: 517 ng/mL
- AUC(0-t) [2, 15]: 2860 ng·h/mL
- Tmax [2, 15]: 4 h
- Cmax [2, 16]: 581 ng/mL
- AUC(0-t) [2, 16]: 4150 ng·h/mL
- Tmax [2, 16]: 4 h
- crossing of the blood/brain barrier [3]: crossed the blood/brain barrier
- Cmax ([4]; Fed Arm (high fat), mean): 631 ng/mL
- AUC(0-t) ([4]; human, plasma, Fasting Arm, mean, read-out: AUC0-Tlast): 2200 ng·h/mL
- Tmax ([4]; human, plasma, Fasting Arm, median): 5 h
- AUC(0-inf) ([4]; human, plasma, Fed Arm (high fat), mean): 4500 ng·h/mL
- tolerability [5]: better tolerated than the sodium salt form
- AUC(0-inf) ([6]; 50 mg single oral): 1570 ng·h/mL
- AUC(0-t) ([6]; 50 mg single oral): 1540 ng·h/mL
- Cmax ([6]; 50 mg single oral): 469 ng/mL
- Tmax ([6]; 50 mg single oral): 5 h
- AUC(0-inf) ([6]; 100 mg single oral): 2870 ng·h/mL
- AUC(0-t) ([6]; 100 mg single oral): 3130 ng·h/mL
- Cmax ([6]; 100 mg single oral): 745 ng/mL
- Tmax ([6]; 100 mg single oral): 5 h
- AUC(0-inf) ([6]; 150 mg single oral): 4500 ng·h/mL
- AUC(0-t) ([6]; 150 mg single oral): 5300 ng·h/mL
- Tmax ([6]; 150 mg single oral): 5 h
- AUC0-t greater in elderly subjects compared to young subjects ([7]; 200 mg dose, Tables 9 and 10): approximately 70%
- Cmax greater in elderly subjects compared to young subjects ([7]; 200 mg dose, Tables 9 and 10): approximately 70%
- AUC(0-inf) [7, 17]: 1420 ng·h/mL
- Tmax [7, 17]: 5 h
- AUC(0-inf) [7, 18]: 2490 ng·h/mL
- Tmax [7, 18]: 5 h
- AUC(0-inf) [7, 19]: 4460 ng·h/mL
- Tmax [7, 19]: 5 h
- Tmax ([7]; 400 mg single oral, young (18-45 years) male): 2 h
- Cmax [7, 20]: 410 ng/mL
- AUC(0-t) [7, 20]: 1390 ng·h/mL
- Cmax [7, 21]: 1090 ng/mL
- AUC(0-t) [7, 21]: 4880 ng·h/mL
- Cmax [7, 22]: 661 ng/mL
- AUC(0-t) [7, 22]: 2900 ng·h/mL
- Cmax [7, 23]: 904 ng/mL
- AUC(0-t) [7, 23]: 4000 ng·h/mL
- Cmax [7, 24]: 5370 ng/mL
- AUC(0-t) [7, 24]: 16000 ng·h/mL
- ratio of Aβ42/Aβ40 ([8]; CSF, treated patients (FIGS. 2, 3 and 4)): reduced
- CSF Aβ42 levels ([8]; treated patients (FIG. 1)): reduced
- Tmax [9]: 5 h

SMILES: NCCCS(=O)(=O)[O-].[Na+] [3-amino-1-propanesulfonic acid, sodium salt]
- gastrointestinal symptoms (i.e. nausea and vomiting) [10]: associated with gastrointestinal symptoms

Source: patent publication US20060257480A1, “Pharmaceutical formulations of amyloid inhibiting compounds” (priority 2005, published 2006)
